Data taken from paper PMC7551609 (Viruses, 2020).
“Also recorded” adds a separate entry of the source.

Assays:
ZIKV Paraiba/2015 [1] = assay: Viral inhibition assay, co-treatment, Vero cells; type: cell-based, Zika virus; settings: for Co-treatment MIC (maximum effective concentration): Vero cells, ZIKV Paraiba/2015, co-treatment; for inhibitor category based on SI-MTT and SI-XTT / inhibitor category based on SI-MTT / inhibitor category based on SI-XTT: co-treatment, Paraiba/2015, Vero
ZIKV Paraiba/2015 [2] = assay: Viral inhibition assay, pre-treatment (prophylactic), Vero cells; type: cell-based, Zika virus; settings: for MIC / EC50: Zika virus; for MIC: read-out: Pre-treatment MIC (maximum effective concentration); for EC50: ZIKV Paraiba/2015, Vero cells, pre-treatment 12 h before infection
Caspase 3 and 7 = assay: Apoptosis assay (Caspase Glo 3/7) in ZIKV-infected Vero cells; settings: 0, 0.1, 1, 10 EC50; 24, 48, 72 h post-treatment
ZIKV PRVABC59 strain = assay: Viral inhibition assay, post-treatment, new World strain, Vero cells; type: cell-based, Zika virus; settings: for EC50 / MIC: Zika virus; for EC50: new World ZIKV PRVABC59, Vero cells, post-treatment, 48 h; for MIC: new World ZIKV PRVABC59, read-out: PRVABC59 MIC (maximum effective concentration)
ZIKV Paraiba/2015 [3] = assay: Growth kinetics inhibition assay (infectious viral progeny), Vero cells; type: cell-based, Zika virus
[4] = MTT cell viability assay in Vero cells; type: cell-based, African green monkey; settings: African green monkey, non-infected Vero cells, 36 h post-treatment
[5] = XTT cell proliferation assay in Vero cells; type: cell-based, African green monkey; settings: African green monkey, non-infected Vero cells, 36 h post-treatment
ZIKV Paraiba/2015 [6] = assay: Viral inhibition assay, post-treatment, human A549 cells; type: cell-based, Zika virus; settings: for inhibitor category based on SI-MTT and SI-XTT: Paraiba/2015, A549 cells; for MIC / EC50: Zika virus; for MIC: in Homo sapiens, read-out: A549 cells MIC (maximum effective concentration); for EC50: ZIKV Paraiba/2015, A549 cells, post-treatment, 36 h
[7] = MTT cell viability in A549 cells; type: cell-based, human; settings: human, highest concentration used 50.00 µM, sentence also cites [17]
ZIKV MR-766 strain = assay: Viral inhibition assay, post-treatment, old World strain, Vero cells; type: cell-based, Zika virus; settings: for inhibitor category based on SI-MTT and SI-XTT: ZIKV MR-766, Vero; for EC50 / MIC: Zika virus; for EC50: old World ZIKV MR-766, Vero cells, post-treatment; for MIC: old World ZIKV MR-766 strain, read-out: MR766 MIC (maximum effective concentration)
[8] = XTT cell proliferation in A549 cells; type: cell-based, human; settings: human, highest concentration used 50.00 µM, sentence also cites [17]
ZIKV Paraiba/2015 [9] = assay: Viral inhibition assay, post-infection treatment, Vero cells; type: cell-based, Zika virus; settings: for EC50: 36 h, ZIKV Paraiba/2015, Vero cells, post-infection treatment; for MIC: read-out: Post-treatment MIC (maximum effective concentration); for inhibitor category based on SI-MTT and SI-XTT / inhibitor category based on SI-MTT / inhibitor category based on SI-XTT: post-treatment, Paraiba/2015, Vero
[10] = test system: ZIKV cocktail of MR-766, FSS13025, and MEX-2-81; settings: JEG-3 cells, ZIKV cocktail of MR-766, FSS13025, MEX-2-81; cited from earlier work
[11] = pre-treatment, Paraiba/2015, Vero
[12] = 0.1, 1, 10 EC50, all time points (24, 48, 72 h post-treatment), MOI 0.1

SMILES | Co-treatment MIC (maximum effective concentration) (ZIKV Paraiba/2015 [1]) [µM] | inhibitor category based on SI-MTT and SI-XTT (ZIKV Paraiba/2015 [1]) | MIC (ZIKV Paraiba/2015 [2]) [µM] | EC50 (ZIKV Paraiba/2015 [2]) [µM] | inhibitor category based on SI-MTT (ZIKV Paraiba/2015 [2]; [11]) | inhibitor category based on SI-XTT (ZIKV Paraiba/2015 [2]; [11]) | EC50 (ZIKV PRVABC59 strain) [µM] | MIC (ZIKV PRVABC59 strain) [µM] | CC50 at 36 h ([4]; confluent monolayers) [µM] | inhibitor category based on SI-MTT and SI-XTT (ZIKV Paraiba/2015 [6]) | MIC (ZIKV Paraiba/2015 [6]) [µM] | EC50 (ZIKV Paraiba/2015 [6]) [µM] | CC50 [7] [µM] | inhibitor category based on SI-MTT and SI-XTT (ZIKV MR-766 strain) | EC50 (ZIKV MR-766 strain) [µM] | MIC (ZIKV MR-766 strain) [µM] | CC50 [8] [µM] | EC50 (ZIKV Paraiba/2015 [9]; Zika virus, Vero) [µM] | MIC (ZIKV Paraiba/2015 [9]; Zika virus) [µM] | inhibitor category based on SI-MTT and SI-XTT (ZIKV Paraiba/2015 [9]) | further results
O=C(O)C1=CC(=C(c2ccc(O)c(C(=O)O)c2)c2ccc(O)c(C(=O)O)c2)C=CC1=O [ATA, Aurintricarboxylic acid] | < 33.30 | potent | > 100 | 9.86 | potent | moderate | 4.74 | < 33.3 | > 1350 | weak | < 100 | 6.67 | > 50 | weak | 8.08 | < 33.3 | > 50 | 21 | > 100 | moderate to weak | caspase 3/7 activation in ZIKV-infected cells (Caspase 3 and 7): dose-dependent effect; inhibitor category based on SI-MTT (ZIKV PRVABC59 strain; ZIKV PRVABC59, Vero): moderate; inhibitor category based on SI-XTT (ZIKV PRVABC59 strain; ZIKV PRVABC59, Vero): weak; effect on production of infectious viral progeny (viral titers) (ZIKV Paraiba/2015 [3]; 10 EC50): complete inhibition; CC50 at 36 h ([5]; confluent monolayers): > 1350 µM
CC[C@H](CC#N)OC(=O)N[C@@H](C)c1cccc(NC(=O)Nc2ccc(-c3cnco3)c(OC)c2)c1 [AVN-944] | > 100.00 | moderate | < 100 | 11.1 | Potent | moderate | 0.38 | < 1.23 | 273 | Potent | < 0.41 | 0.05 | > 50 | most potent; also recorded: potent | 0.33 | < 1.23 | > 50 | 0.84 | < 11.1 | most potent; also recorded: potent | inhibitor category based on SI-MTT and SI-XTT (ZIKV PRVABC59 strain; ZIKV PRVABC59, Vero): potent; effect on production of infectious viral progeny (viral titers) (ZIKV Paraiba/2015 [3]; [12]): dose-dependent inhibitory effect; CC50 at 36 h ([5]; confluent monolayers): > 1350 µM; EC50 (ZIKV Paraiba/2015 [9]): 0.98 µM
CCCCCC[C@H]1C(=O)O[C@H](C)[C@H](NC(=O)c2cccc(NC=O)c2O)C(=O)O[C@@H](C)[C@@H]1OC(=O)CC(C)C [Antimycin A] | > 100.00 | – | < 100 | 8.95 | moderate | moderate | 7.32 | < 33.3 | – | weak | < 11.1 | 1.71 | > 50 | most potent; also recorded: potent | 0.03 | < 33.3 | > 50 | 1.29 | < 100 | moderate to weak | inhibitor category based on SI-MTT (ZIKV Paraiba/2015 [1]): moderate; inhibitor category based on SI-XTT (ZIKV Paraiba/2015 [1]): potent; inhibitor category based on SI-MTT and SI-XTT (ZIKV PRVABC59 strain; ZIKV PRVABC59, Vero): weak; effect on production of infectious viral progeny (viral titers) (ZIKV Paraiba/2015 [3]; 72 h post-treatment): dose-dependent effect; CC50 at 36 h [4]: 51.3 µM; CC50 at 36 h [5]: > 1350 µM; inhibitor category based on SI-MTT (ZIKV Paraiba/2015 [9]): weak; inhibitor category based on SI-XTT (ZIKV Paraiba/2015 [9]): potent
COc1c(C)c2c(c(O)c1C/C=C(\C)CCC(=O)OCCN1CCOCC1)C(=O)OC2 [Mycophenolate mofetil] | > 100.00 | potent | > 100 | 8.11 | Potent; also recorded: moderate | potent | 0.12 | < 1.23 | 166 | weak | < 11.1 | 0.83 | > 50 | most potent; also recorded: potent | 0.24 | < 1.23 | > 50 | 3.54 | > 100 | moderate to weak | inhibitor category based on SI-MTT (ZIKV Paraiba/2015 [1]): Potent; inhibitor category based on SI-XTT (ZIKV Paraiba/2015 [1]): potent; inhibitor category based on SI-MTT and SI-XTT (ZIKV PRVABC59 strain; ZIKV PRVABC59, Vero): potent; effect on production of infectious viral progeny (viral titers) (ZIKV Paraiba/2015 [3]; [12]): dose-dependent inhibitory effect; EC50 [10]: 0.76 µM; CC50 at 36 h ([5]; confluent monolayers): > 1350 µM; EC50 (ZIKV Paraiba/2015 [9]): 3.52 µM
NC(=O)c1[nH]nc([C@@H]2O[C@H](CO)[C@@H](O)[C@H]2O)c1O [Pyrazofurin] | > 100.00 | weak | > 100 | 313 | – | weakest | 0.95 | < 3.7 | 271 | moderate | < 1.23 | 0.33 | > 50 | moderate | 0.89 | < 3.7 | > 50 | 5.16 | > 100 | moderate to weak | inhibitor category based on SI-MTT (ZIKV Paraiba/2015 [1]): weak; inhibitor category based on SI-MTT and SI-XTT (ZIKV Paraiba/2015 [2]; [11]): weak; inhibitor category based on SI-MTT and SI-XTT (ZIKV PRVABC59 strain; ZIKV PRVABC59, Vero): moderate; effect on production of infectious viral progeny (viral titers) (ZIKV Paraiba/2015 [3]; [12]): dose-dependent inhibitory effect; CC50 at 36 h ([5]; confluent monolayers): > 1350 µM; EC50 (ZIKV Paraiba/2015 [9]): 5.96 µM; inhibitor category based on SI-MTT (ZIKV Paraiba/2015 [9]): moderate; inhibitor category based on SI-XTT (ZIKV Paraiba/2015 [9]): weak
